Experimental data published in patent US12077503B2, “Substituted cyclic amides and their use as herbicides” (FMC CORPORATION, priority 2015, dated 2024).

What was measured:
Type in all cases: in vivo
Kochia (Kochia scoparia) [1] = assay: Test A postemergence; conditions: for Kochia plant response rating: visual injury rating on 0 to 100 scale (0 no effect, 100 complete control)
In short: (§1)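 Seeded soil received test chemicals as a preemergence directed spray, and seedlings at one to two leaves, 2–10 cm tall, received them postemergence, in a non-phytotoxic, surfactant-containing solvent mixture. Pots were held in a greenhouse for approximately 10 d, then rated for injury from 0, no effect, to 100, complete control.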

[2] = tested on: pigweed (Amaranthus retroflexus); assay: Test A postemergence; conditions: for Pigweed plant response rating: visual injury rating on 0 to 100 scale (0 no effect, 100 complete control)
In short: as §1

[3] = tested on: Galium (catchweed bedstraw, Galium aparine); assay: Test A postemergence; conditions: for Galium plant response rating: visual injury rating on 0 to 100 scale (0 no effect, 100 complete control)
In short: as §1

[4] = tested on: ryegrass, Italian (Italian ryegrass, Lolium multiflorum); assay: Test A postemergence; conditions: for Ryegrass, Italian plant response rating: visual injury rating on 0 to 100 scale (0 no effect, 100 complete control)
In short: as §1

[5] = tested on: ragweed (common ragweed, Ambrosia elatior); assay: Test A postemergence; conditions: for Ragweed plant response rating: visual injury rating on 0 to 100 scale (0 no effect, 100 complete control)
In short: as §1

[6] = tested on: blackgrass (Alopecurus myosuroides); assay: Test A postemergence; conditions: for Blackgrass plant response rating: visual injury rating on 0 to 100 scale (0 no effect, 100 complete control)
In short: as §1

[7] = tested on: giant foxtail (Setaria faberii); assay: Test A postemergence; conditions: for Foxtail, Giant plant response rating: visual injury rating on 0 to 100 scale (0 no effect, 100 complete control)
In short: as §1

[8] = tested on: wheat (Triticum aestivum); assay: Test A postemergence; conditions: for Wheat plant response rating: visual injury rating on 0 to 100 scale (0 no effect, 100 complete control)
In short: as §1

corn (Zea mays) = assay: Test A postemergence; conditions: for Corn plant response rating: visual injury rating on 0 to 100 scale (0 no effect, 100 complete control)
In short: as §1

[9] = tested on: barnyardgrass (Echinochloa crus-galli); assay: Test A postemergence; conditions: for Barnyardgrass plant response rating: visual injury rating on 0 to 100 scale (0 no effect, 100 complete control)
In short: as §1

Kochia (Kochia scoparia) [10] = assay: Test A preemergence; conditions: for Kochia plant response rating (0 to 100 scale, 0 is no effect, 100 is complete control): visual injury approx. 10 d
In short: as §1

[11] = tested on: pigweed (Amaranthus retroflexus); assay: Test A preemergence; conditions: for Pigweed plant response rating (0 to 100 scale, 0 is no effect, 100 is complete control): visual injury approx. 10 d
[12] = tested on: ryegrass, Italian (Italian ryegrass, Lolium multiflorum); assay: Test A preemergence; conditions: for Ryegrass, Italian plant response rating (0 to 100 scale, 0 is no effect, 100 is complete control): visual injury approx. 10 d
In short: as §1

[13] = tested on: ragweed (common ragweed, Ambrosia elatior); assay: Test A preemergence; conditions: for Ragweed plant response rating (0 to 100 scale, 0 is no effect, 100 is complete control): visual injury approx. 10 d
In short: as §1

[14] = tested on: giant foxtail (Setaria faberii); assay: Test A preemergence; conditions: for Foxtail, Giant plant response rating (0 to 100 scale, 0 is no effect, 100 is complete control): visual injury approx. 10 d
In short: as §1

[15] = tested on: barnyardgrass (Echinochloa crus-galli); assay: Test A preemergence; conditions: for Barnyardgrass plant response rating (0 to 100 scale, 0 is no effect, 100 is complete control): visual injury approx. 10 d
In short: as §1

rice (Oryra sativa) = assay: Test B flooded paddy test; conditions: Flood, 250 g ai/ha; 0 to 100 scale where 0 is no effect and 100 is complete control; 13 to 15 d
In short: (§2)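 Plants at 2-leaf stage flooded to 3 cm above soil, with compounds applied directly to paddy water and that depth maintained. Plants kept in greenhouse 13–15 d. Visual rating versus controls on a 0 (no effect) to 100 (complete control) scale.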

[16] = tested on: ducksalad (Heteranthera limosa); assay: Test B flooded paddy test; conditions: Flood, 250 g ai/ha; 0 to 100 scale where 0 is no effect and 100 is complete control; 13 to 15 d
In short: as §2

[17] = tested on: sedge, umbrella (small-flower umbrella sedge, Cyperus difformis); assay: Test B flooded paddy test; conditions: Flood, 250 g ai/ha; for Plant response rating, Sedge, Umbrella: 0 to 100 scale where 0 is no effect and 100 is complete control, 13 to 15 d
In short: as §2

[18] = tested on: barnyardgrass (Echinochloa crus-galli); assay: Test B flooded paddy test; conditions: Flood, 250 g ai/ha; 0 to 100 scale where 0 is no effect and 100 is complete control; 13 to 15 d
In short: as §2

[19] = 125 g ai/ha, postemergence, approx. 10 d
[20] = Postemergence, 500 g ai/ha, 0 to 100 scale where 0 is no effect and 100 is complete control
[21] = 125 g ai/ha, Preemergence, visual injury after approximately 10 d, 0 to 100 scale where 0 is no effect and 100 is complete control
[22] = 125 g ai/ha, postemergence, visual injury after approximately 10 d, 0 to 100 scale (0 no effect, 100 complete control)
[23] = 500 g ai/ha, postemergence, visual injury, 0 to 100 scale (0 no effect, 100 complete control), approx. 10 d
[24] = 125 g ai/ha, postemergence, visual rating after approx. 10 d, 0 to 100 scale (0 no effect, 100 complete control)
[25] = 500 g ai/ha, preemergence, 0 to 100 scale, 0 = no effect, 100 = complete control
[26] = 125 g ai/ha, preemergence, visual rating after approx. 10 d, 0 to 100 scale where 0 is no effect and 100 is complete control
[27] = 500 g ai/ha, postemergence, 0 to 100 scale, 0 no effect, 100 complete control
[28] = 125 g ai/ha, preemergence, 0 to 100 scale (0 no effect, 100 complete control)

O=C1NCC(c2ccc(F)cc2F)C1C(=O)Nc1ccc(F)cc1F (racemic) [Compound 518]
Kochia plant response rating (Kochia (Kochia scoparia) [1]; [19]): 0
Plant response rating, Kochia (Kochia (Kochia scoparia) [1]; [20]): 0
Pigweed plant response rating [2, 19]: 0
Plant response rating, Pigweed [2, 20]: 0
Galium plant response rating [3, 19]: 0
Plant response rating, Galium [3, 20]: 20
Ryegrass, Italian plant response rating [4, 19]: 0
Plant response rating, Ryegrass, Italian [4, 20]: 0
Ragweed plant response rating [5, 19]: 0
Plant response rating, Ragweed [5, 20]: 0
Blackgrass plant response rating [6, 19]: 0
Plant response rating, Blackgrass [6, 20]: 0
Foxtail, Giant plant response rating [7, 19]: 20
Plant response rating, Foxtail, Giant [7, 20]: 70
Wheat plant response rating [8, 19]: 0
Plant response rating, Wheat [8, 20]: 0
Corn plant response rating (corn (Zea mays); [19]): 0
Plant response rating, Corn (corn (Zea mays); [20]): 0
Barnyardgrass plant response rating [9, 19]: 0
Plant response rating, Barnyardgrass [9, 20]: 50
Plant response rating, Kochia (Kochia (Kochia scoparia) [10]; [21]): 0
Kochia plant response rating (0 to 100 scale, 0 is no effect, 100 is complete control) (Kochia (Kochia scoparia) [10]; Preemergence, 500 g ai/ha): 0
Plant response rating, Pigweed [11, 21]: 0
Pigweed plant response rating (0 to 100 scale, 0 is no effect, 100 is complete control) ([11]; Preemergence, 500 g ai/ha): 0
Plant response rating, Ryegrass, Italian [12, 21]: 0
Ryegrass, Italian plant response rating (0 to 100 scale, 0 is no effect, 100 is complete control) ([12]; Preemergence, 500 g ai/ha): 0
Plant response rating, Ragweed [13, 21]: 0
Ragweed plant response rating (0 to 100 scale, 0 is no effect, 100 is complete control) ([13]; Preemergence, 500 g ai/ha): 0
Plant response rating, Foxtail, Giant [14, 21]: 70
Foxtail, Giant plant response rating (0 to 100 scale, 0 is no effect, 100 is complete control) ([14]; Preemergence, 500 g ai/ha): 90
Plant response rating, Barnyardgrass [15, 21]: 0
Barnyardgrass plant response rating (0 to 100 scale, 0 is no effect, 100 is complete control) ([15]; Preemergence, 500 g ai/ha): 60
Plant response rating, Rice (rice (Oryra sativa)): 0
Plant response rating, Ducksalad [16]: 65
Plant response rating, Sedge, Umbrella [17]: 0
Plant response rating, Barnyardgrass [18]: 0

CN1CC(c2ccc(C(C)(F)F)cc2)C(C(=O)Nc2ccccc2S(C)(=O)=O)C1=O (stereo not drawn) [Compound 692]
Plant response rating, Kochia (Kochia (Kochia scoparia) [1]; [22]): 40
Plant response rating, Kochia (Kochia (Kochia scoparia) [1]; [23]): 60
Plant response rating, Pigweed [2, 22]: 40
Plant response rating, Pigweed [2, 23]: 50
Plant response rating, Galium [3, 22]: 0
Plant response rating, Galium [3, 23]: 60
Plant response rating, Ryegrass, Italian [4, 22]: 50
Plant response rating, Ryegrass, Italian [4, 23]: 60
Plant response rating, Ragweed [5, 22]: 0
Plant response rating, Ragweed [5, 23]: 30
Plant response rating, Blackgrass [6, 24]: 50
Plant response rating, Blackgrass [6, 23]: 60
Plant response rating, Foxtail, Giant [7, 22]: 70
Plant response rating, Foxtail, Giant [7, 23]: 80
Plant response rating, Wheat [8, 22]: 0
Plant response rating, Wheat [8, 23]: 50
Plant response rating, Corn (corn (Zea mays); [22]): 0
Plant response rating, Corn (corn (Zea mays); [23]): 50
Plant response rating, Barnyardgrass [9, 24]: 70
Plant response rating, Barnyardgrass [9, 23]: 80
Plant response rating, Kochia (Kochia (Kochia scoparia) [10]; [21]): 70
Plant response rating, Kochia (Kochia (Kochia scoparia) [10]; [25]): 80
Plant response rating, Pigweed [11, 26]: 80
Plant response rating, Pigweed [11, 25]: 90
Plant response rating, Ryegrass, Italian [12, 26]: 20
Plant response rating, Ryegrass, Italian [12, 25]: 60
Plant response rating, Ragweed [13, 26]: 50
Plant response rating, Ragweed [13, 25]: 70
Plant response rating, Foxtail, Giant [14, 21]: 80
Plant response rating, Foxtail, Giant [14, 25]: 90
Plant response rating, Barnyardgrass [15, 21]: 70
Plant response rating, Barnyardgrass [15, 25]: 90
Plant response rating, Rice (rice (Oryra sativa)): 0
Plant response rating, Ducksalad [16]: 20
Sedge, Umbrella plant response rating ([17]; scale of 0 to 100 where 0 is no effect and 100 is complete control): 0
Plant response rating, Barnyardgrass [18]: 0

Cc1c(F)ccc(NC(=O)C2C(=O)NCC2c2cc(F)cc(F)c2)c1F (stereo not drawn) [Compound 461]
Kochia plant response rating (Kochia (Kochia scoparia) [1]; [19]): 0
Plant response rating, Kochia (Kochia (Kochia scoparia) [1]; [27]): 0
Pigweed plant response rating [2, 19]: 0
Plant response rating, Pigweed [2, 27]: 0
Galium plant response rating [3, 19]: 0
Plant response rating, Galium [3, 27]: 20
Ryegrass, Italian plant response rating [4, 19]: 0
Plant response rating, Ryegrass, Italian [4, 27]: 20
Ragweed plant response rating [5, 19]: 0
Plant response rating, Ragweed [5, 27]: 0
Blackgrass plant response rating [6, 19]: 0
Plant response rating, Blackgrass [6, 27]: 0
Foxtail, Giant plant response rating [7, 19]: 80
Plant response rating, Foxtail, Giant [7, 27]: 80
Wheat plant response rating [8, 19]: 0
Plant response rating, Wheat [8, 27]: 0
Corn plant response rating (corn (Zea mays); [19]): 0
Plant response rating, Corn (corn (Zea mays); [27]): 0
Barnyardgrass plant response rating [9, 19]: 80
Plant response rating, Barnyardgrass [9, 27]: 90
Plant response rating, Kochia (Kochia (Kochia scoparia) [10]; [28]): 0
Kochia plant response rating (0 to 100 scale, 0 is no effect, 100 is complete control) (Kochia (Kochia scoparia) [10]; Preemergence, 500 g ai/ha): 50
Plant response rating, Pigweed [11, 28]: 0
Pigweed plant response rating (0 to 100 scale, 0 is no effect, 100 is complete control) ([11]; Preemergence, 500 g ai/ha): 0
Plant response rating, Ryegrass, Italian [12, 28]: 20
Ryegrass, Italian plant response rating (0 to 100 scale, 0 is no effect, 100 is complete control) ([12]; Preemergence, 500 g ai/ha): 20
Plant response rating, Ragweed [13, 28]: 0
Ragweed plant response rating (0 to 100 scale, 0 is no effect, 100 is complete control) ([13]; Preemergence, 500 g ai/ha): 0
Plant response rating, Foxtail, Giant [14, 28]: 90
Foxtail, Giant plant response rating (0 to 100 scale, 0 is no effect, 100 is complete control) ([14]; Preemergence, 500 g ai/ha): 90
Plant response rating, Barnyardgrass [15, 28]: 70
Barnyardgrass plant response rating (0 to 100 scale, 0 is no effect, 100 is complete control) ([15]; Preemergence, 500 g ai/ha): 90
Plant response rating, Rice (rice (Oryra sativa)): 0
Plant response rating, Ducksalad [16]: 100
Plant response rating, Sedge, Umbrella [17]: 0
Plant response rating, Barnyardgrass [18]: 60
